# Laboratory results reported in ChEMBL document CHEMBL1201862, “PubChem BioAssay data set” (2004).
# Activity calls are given as the source filed them.
# Legend:
# Bcl-2-related protein A1 [1] = molecular target: T1, Bcl-2-related protein A1 (Mus musculus, UniProt Q07440); assay: small-molecule antagonists of Bfl-1/BH3 interaction – biochemical, TR-FRET, mouse Bfl-1, confirmation (AID 621);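 further: TR-FRET binding of GST-Bfl-1 to FITC-labelled Bid peptide via terbium antibody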
# T1 sequence (Q07440 whole entry): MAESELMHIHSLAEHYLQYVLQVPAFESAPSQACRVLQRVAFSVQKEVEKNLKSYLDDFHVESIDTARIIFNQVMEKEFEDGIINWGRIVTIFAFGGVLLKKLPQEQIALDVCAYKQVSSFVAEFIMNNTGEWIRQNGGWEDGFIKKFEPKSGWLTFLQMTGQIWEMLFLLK
# Bcl-2-related protein A1 [2] = molecular target: T1, Bcl-2-related protein A1; assay: Bfl-1 binding inhibitors, SAR follow-up, biochemical, fluorescence polarization (AID 1070)
# [3] = molecular target: Glyceraldehyde-3-phosphate dehydrogenase (Homo sapiens, UniProt P04406)
# HT-1080 = assay: HT1080 cell viability loss – fluorescence readout (AID 620); assay type: functional, cell-based; details: Homo sapiens
# [4] = molecular target: Luciferin 4-monooxygenase (Photinus pyralis, UniProt P08659); assay: Counter Screen for Luciferase-based Assay Positives. [Related pubchem assays: 620, 618, 411 ]
# [5] = molecular target: Induced myeloid leukemia cell differentiation protein Mcl-1 (Homo sapiens, UniProt Q07820); assay type: functional
# [6] = Luminescence Cell-Based Dose Response HTS to Identify Inhibitors of 5'UTR Stem-Loop Driven Prion Protein mRNA Translation in H4 Neuroglioblastoma Cells. [Related pubchem assays: 1827 (Project Summary), 1813 (Primary HTS)]; assay type: functional
# [7] = alpha-synuclein stem-loop luciferase translation blockers – H4 neuroglioma cells, luminescence, confirmation (AID 1988); assay type: functional, cell-based
# HeLa [8] = assay: Cytotoxicity counterscreen assay for transcriptional activators of heat shock protein 70 (Hsp70). [Related pubchem assays: 1203, 1252 ]; assay type: functional; details: Homo sapiens
# [9] = A Cell Based Secondary Assay To Explore Cytotoxicity of Compounds that Sensitize Mycobacterium Tuberculosis to Beta-Lactam Antibiotics.; assay type: functional
# BJ [10] = assay: cells; assay type: functional, cell-based; details: Homo sapiens
# BJ [11] = assay: BJ-TERT fibroblast viability loss – cell-based, RAS-independent, luminescence, dose response (AID 1933); assay type: functional; details: Homo sapiens
# BJ [12] = assay: BJ-TERT-LT-ST fibroblast viability loss – cell-based, RAS-independent, luminescence, dose response (AID 1935); assay type: functional; details: Homo sapiens;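 further: BJ fibroblasts immortalized with TERT plus LT and ST oncogenes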
# [13] = luciferase reporter signal suppression in cells – H4 neuroglioma cells, luminescence, dose response (AID 1990); assay type: functional, cell-based
# [14] = DRD fibroblast viability loss – cell-based, non-viral oncogenic, luminescence, dose response (AID 1934); assay type: functional; details: Homo sapiens
# [15] = viability loss of HPDE-C7K cells – cell-based, fluorescence, HTS, primary screen (AID 431); assay type: functional; details: Homo sapiens
# INS1 = assay: INS-1E survival protection against cytokine death – cell-based, luminescence, retest, dose response (AID 449756); assay type: functional; details: Rattus norvegicus;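 further: cell death triggered by IL-1 beta plus TNF-alpha plus IFN-gamma mixture; protective hits raise ATP signal compared with cytokine alone wells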
# [16] = HPDE-C7 pancreatic duct cell viability loss – fluorescence, HTS (AID 430); assay type: functional, cell-based; details: Homo sapiens
# [17] = Luminescence Cell-Based Dose Retest to Confirm Inhibitors of Cancer Stem Cells. [Related pubchem assays (depositor defined):AID2717, AID2721]; assay type: functional; details: Homo sapiens
# [18] = molecular target: Polyadenylate-binding protein 1 (Homo sapiens, UniProt P11940); assay: blockers of PABP interaction with poly(A) – biochemical, fluorescence polarization, […] (AID 2014)
# [19] = molecular target: Eukaryotic translation initiation factor 4H (Homo sapiens, UniProt Q15056); assay: eIF4H binding inhibition – biochemical, uHTS, fluorescence polarization, translation initiation inhibitor project, primary screen (AID 2012)
# HeLa [20] = assay: viability loss in HeLa cells – cell-based, 24 h, cherry-picked samples, cytotoxicity control, dose response (AID 504726); assay type: functional; details: Homo sapiens;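 further: potency for cytotoxicity as loss of luminescence signal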
# Chain of Glyceraldehyde-3-phosphate dehydrogenase (P04406 whole entry): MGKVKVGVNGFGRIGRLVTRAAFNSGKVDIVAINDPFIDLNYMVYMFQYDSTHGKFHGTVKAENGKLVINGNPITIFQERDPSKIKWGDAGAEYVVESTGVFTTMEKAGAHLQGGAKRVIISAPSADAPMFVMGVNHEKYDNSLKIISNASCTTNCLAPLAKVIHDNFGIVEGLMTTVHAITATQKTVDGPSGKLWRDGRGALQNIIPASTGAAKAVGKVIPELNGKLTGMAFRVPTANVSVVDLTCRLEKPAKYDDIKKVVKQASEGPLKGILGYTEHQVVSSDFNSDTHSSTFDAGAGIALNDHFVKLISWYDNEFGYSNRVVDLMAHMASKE
# Chain of Polyadenylate-binding protein 1 (P11940 whole entry): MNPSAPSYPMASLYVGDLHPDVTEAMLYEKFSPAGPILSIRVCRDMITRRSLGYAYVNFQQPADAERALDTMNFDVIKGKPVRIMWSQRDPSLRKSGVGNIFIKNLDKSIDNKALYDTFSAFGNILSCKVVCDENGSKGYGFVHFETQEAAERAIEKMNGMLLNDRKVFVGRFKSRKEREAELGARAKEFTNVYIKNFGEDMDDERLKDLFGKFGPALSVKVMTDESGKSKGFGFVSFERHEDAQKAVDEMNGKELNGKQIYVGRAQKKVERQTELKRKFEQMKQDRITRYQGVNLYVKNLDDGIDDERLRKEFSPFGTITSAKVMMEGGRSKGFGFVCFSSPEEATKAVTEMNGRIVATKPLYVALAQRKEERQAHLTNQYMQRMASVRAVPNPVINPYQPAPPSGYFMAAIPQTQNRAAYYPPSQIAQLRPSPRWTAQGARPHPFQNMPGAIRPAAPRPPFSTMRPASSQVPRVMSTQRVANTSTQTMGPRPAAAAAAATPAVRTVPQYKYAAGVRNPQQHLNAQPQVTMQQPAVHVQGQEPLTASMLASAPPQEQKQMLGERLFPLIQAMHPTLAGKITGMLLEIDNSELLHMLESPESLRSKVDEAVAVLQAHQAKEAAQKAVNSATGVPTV
# Chain of Induced myeloid leukemia cell differentiation protein Mcl-1 (Q07820 whole entry): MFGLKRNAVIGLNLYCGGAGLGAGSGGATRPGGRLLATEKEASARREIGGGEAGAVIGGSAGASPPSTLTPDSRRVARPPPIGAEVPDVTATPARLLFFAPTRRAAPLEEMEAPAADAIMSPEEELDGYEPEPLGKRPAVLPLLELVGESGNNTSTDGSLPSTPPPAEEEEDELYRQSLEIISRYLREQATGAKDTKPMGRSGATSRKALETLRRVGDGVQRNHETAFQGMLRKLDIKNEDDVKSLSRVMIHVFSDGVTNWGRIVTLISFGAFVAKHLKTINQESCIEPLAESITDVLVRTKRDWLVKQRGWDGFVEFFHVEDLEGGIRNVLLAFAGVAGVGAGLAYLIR
# Chain of Luciferin 4-monooxygenase (P08659 whole entry): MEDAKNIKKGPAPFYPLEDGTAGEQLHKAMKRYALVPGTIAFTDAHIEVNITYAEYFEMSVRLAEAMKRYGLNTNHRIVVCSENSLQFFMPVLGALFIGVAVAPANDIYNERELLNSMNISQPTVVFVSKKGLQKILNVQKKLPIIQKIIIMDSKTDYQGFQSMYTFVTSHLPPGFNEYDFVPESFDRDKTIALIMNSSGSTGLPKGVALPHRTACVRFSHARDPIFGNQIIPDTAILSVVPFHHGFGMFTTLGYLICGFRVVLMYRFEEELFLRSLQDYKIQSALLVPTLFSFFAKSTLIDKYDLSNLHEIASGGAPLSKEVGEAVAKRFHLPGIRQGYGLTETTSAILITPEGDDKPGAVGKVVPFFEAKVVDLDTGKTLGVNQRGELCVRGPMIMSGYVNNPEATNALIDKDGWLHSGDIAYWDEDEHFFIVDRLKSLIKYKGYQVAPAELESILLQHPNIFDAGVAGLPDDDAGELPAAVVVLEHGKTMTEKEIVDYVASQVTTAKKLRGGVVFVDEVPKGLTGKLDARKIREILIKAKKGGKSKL
smiles,measurement,setting,value
O=C1C(Cl)=C(N2CCN(Cc3ccc4c(c3)OCO4)CC2)C(=O)N1c1ccc(Cl)c(Cl)c1,IC50,Bcl-2-related protein A1 [1],2.14 µM (active)
same,IC50,Bcl-2-related protein A1 [2],4.07 µM (active)
same,IC50,[3],> 100 µM (not active)
O=C(Nc1ccc2c(c1)OCCO2)c1cncc(Br)c1,EC50,HT-1080,> 50 µM (not active)
same,EC50,[4],12.1 µM (active)
CC(OC(=O)c1cccc(N2C(=O)c3ccccc3C2=O)c1)C(=O)Nc1ccc(N(C)C)cc1 (stereo not drawn),IC50,[5],6.19 µM (not active)
C=CCSc1nccc(-c2nn(-c3ccc(C)cc3)ccc2=O)n1,EC50,[6],> 120 µM (not active)
same,EC50,[7],7.52 µM (active)
same,CC50,HeLa [8],> 33 µM (not active)
same,CC50,[9],16.7 µM (active)
same,EC50,BJ [10],111 µM (active)
same,EC50,BJ [11],15.6 µM (active)
same,EC50,BJ [12],90.2 µM (active)
same,EC50,[13],9.46 µM (active)
same,EC50,[14],3.51 µM (inconclusive)
Cc1nc2ccccc2n1-c1nc(-c2ccco2)cc(C(F)(F)F)n1,EC50,[6],9.22 µM (active)
same,EC50,[7],5.41 µM (active)
same,EC50,[15],3.09 µM (active)
same,EC50,BJ [10],23.3 µM (inconclusive)
same,AC50,INS1,1.44 µM (active)
same,EC50,[16],2.79 µM (active)
same,EC50,BJ [11],1.28 µM (active)
same,EC50,BJ [12],2.38 µM (inconclusive)
same,EC50,[13],> 120 µM (not active)
same,AC50,[17],0.82 µM (active)
same,EC50,[14],2.85 µM (active)
C[n+]1ccccc1/C=C/c1ccc(F)c(F)c1,IC50,[18],4.32 µM (active)
same,IC50,[19],97.9 µM (active)
Cc1cc(C(F)(F)F)nc(S(C)(=O)=O)n1,IC50,Bcl-2-related protein A1 [1],> 100 µM (not active)
same,IC50,Bcl-2-related protein A1 [2],> 100 µM (not active)
same,IC50,[3],> 100 µM (not active)
Oc1nc(S)nc2c1C(c1ccc(Br)cc1)c1c(O)nc(S)nc1O2,AC50,HeLa [20],> 350 µM (inactive)
CCCOc1c(Br)cc(C(=O)NCC)cc1OC,CC50,HeLa [8],> 99 µM (not active)
